Assay results published in paper PMC10054226, “Rapid and Efficient Access to Novel Bio-Inspired 3-Dimensional Tricyclic SpiroLactams as Privileged Structures via Meyers’ Lactamization” (Pharmaceuticals, 2023).

Legend:
[1] = tested on: metastatic breast cancer cell lines (MDA-MB-231); design: method as in PMID 21158420; conditions: cited from earlier work
[2] = Aqueous solubility in PBS at pH 7.4 (LC-MS/MS, AUC PBS/AUC MeOH x 200); assay type: physicochemical; conditions: aqueous buffer, kinetic from dmso stock; PBS at pH 7.4, 24 h shaking at room temperature, triplicate
Procedure: To determine compound solubility, 10 mM of the compound 44 in DMSO was diluted 50-fold either in PBS at pH 7.4 or in organic MeOH solvent in PP tubes (n = 3 for PBS and […]). The tubes were gently shaken for 24 h at room temperature. Then, the three PBS tubes and three of the six methanol tubes were centrifuged for 5 min at 4000 rpm and filtered over 0.45 μm filters (Millex-LH Millipore). The sample was diluted 50-fold in MeOH before LC-MS/MS analysis. The test was performed in triplicate. The solubility was determined by the following ratio: (AUCPBS/AUCMeOH) × 200.

[3] = LogD, octanol:PBS 1:1 at pH 7.4 (LC-MS/MS); assay type: physicochemical; conditions: octanol:PBS 1:1 at pH 7.4, 2 h at room temperature, triplicate
Procedure: To determine compound LogD, 10 mM of the compound 44 in DMSO was diluted 50-fold in a mixture of 1:1 octanol:PBS at pH 7.4. The mixture was gently shaken for 2 h at room temperature. Each sample was then diluted 50-fold in MeOH before LC-MS/MS analysis. For each compound, the test was performed in triplicate. LogD was determined as the logarithm of the ratio of product concentrations in octanol and PBS, respectively, determined by mass signals.

Compound: C=C1CCC2C(C)(C)CCCC23C(=O)OCC13 (stereo not drawn) [Antrocin]
- activity against the proliferation of metastatic breast cancer cell lines [1]: significant activity

Compound: CC(C)[C@H]1CO[C@]23CCNC[C@H]2CCC(=O)N13 [Compound 44, (3S,7aR,11aR)-3-isopropyl-3,6,7,7a,8,9,10,11-octahydro-2H-oxazolo[2,3-j][1,6]naphthyridin-5-one;formic acid]
- solubility at 24 h [2]: > 200 µM
- logD at 2 h [3]: -1.72
